# Measured values taken from patent US11345666B2, “Phenyl and pyridinyl substituted imidazoles as modulators of RORγT” (Janssen Pharmaceutica NV, priority 2018, dated 2022).
# Where two headings read alike, the source gives them in different places. Marks after values point to notes of the source that are not given here.
# Target: full-length human RORγt (Homo sapiens (Human), UniProt P51449)
# Test: RORγt (full-length human) reporter assay, conditions A or B
# Type: cell-based
# Conditions: for IC50: HEK293T cells, read-out: RORγt (FL) Reporter Assay A or B, IC50; for inhibition at 6 µM: read-out: RORγt (FL) Reporter Assay A or B, % inhibition @ 6 μM, 6 μM compound concentration; for inhibition at 2 µM: 2 μM compound concentration (**)
# How it was run: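 HEK293T cells transiently co-transfected (PEI) with GAL4-DBD–RORγt, GAL4-firefly luciferase and CMV-Renilla reporters; condition A 35,000 cells/well, 170.5 ng DNA/well; condition B 8750 cells/well, 42.6 ng DNA/well.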
# [1] = 0.22 μM compound concentration (******), read-out: RORγt (FL) Reporter Assay A or B, % inhibition
# [2] = 0.67 μM compound concentration (****), read-out: RORγt (FL) Reporter Assay A or B, % inhibition
# [3] = read-out: RORγt (FL) Reporter Assay A or B, % inhibition
# full-length human RORγt, sequence (P51449 other isoform, or with tags, fused parts or gaps): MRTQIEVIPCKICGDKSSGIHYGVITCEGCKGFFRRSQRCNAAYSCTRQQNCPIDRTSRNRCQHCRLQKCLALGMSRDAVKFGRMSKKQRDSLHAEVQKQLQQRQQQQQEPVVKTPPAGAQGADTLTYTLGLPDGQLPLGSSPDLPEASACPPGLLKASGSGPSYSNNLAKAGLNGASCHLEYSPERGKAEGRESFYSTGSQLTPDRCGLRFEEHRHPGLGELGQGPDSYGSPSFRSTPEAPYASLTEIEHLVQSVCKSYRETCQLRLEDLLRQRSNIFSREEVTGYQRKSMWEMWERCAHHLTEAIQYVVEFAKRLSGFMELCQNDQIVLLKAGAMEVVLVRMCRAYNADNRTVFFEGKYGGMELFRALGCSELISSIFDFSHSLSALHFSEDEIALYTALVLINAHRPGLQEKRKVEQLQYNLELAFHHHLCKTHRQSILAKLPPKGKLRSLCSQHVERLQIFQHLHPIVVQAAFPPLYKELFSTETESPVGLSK
IC50,SMILES,also measured
15 nM,"CCc1nc(C(=O)NC[C@H]2CC[C@H](S(C)(=O)=O)CC2)c(Cl)n1-c1ccc(CCC(F)(F)F)cc1F [Example 22, 5-Chloro-2-ethyl-1-(2-fluoro-4-(3,3,3-trifluoropropyl)phenyl)-N-(((1r,4r)-4-(methylsulfonyl)cyclohexyl)methyl)-1H-imidazole-4-carboxamide]",inhibition at 0.22 µM [1]: 38%
18 nM,"[2H]C([2H])([2H])Oc1cc(CC(C)(C)C(F)(F)F)ccc1-n1c(CC)nc(C(=O)NC[C@H]2CC[C@H](S(C)(=O)=O)CC2)c1C#N [Example 27, 5-Cyano-2-ethyl-1-(2-(methoxy-d3)-4-(3,3,3-trifluoro-2,2-dimethylpropyl)phenyl)-N-(((1r,4r)-4-(methylsulfonyl)cyclohexyl)methyl)-1H-imidazole-4-carboxamide]",inhibition at 0.67 µM [2]: 97%
22 nM,"CCc1nc(C(=O)NC[C@]2(O)CC[C@@H](S(C)(=O)=O)CC2)c(C)n1-c1ccc(CC(C(F)(F)F)C(F)(F)F)cc1F [Example 109, 2-Ethyl-1-(2-fluoro-4-(3,3,3-trifluoro-2-(trifluoromethyl)propyl)phenyl)-N-(((1s,4s)-1-hydroxy-4-(methylsulfonyl)cyclohexyl)methyl)-5-methyl-1H-imidazole-4-carboxamide]",inhibition at 0.67 µM [2]: 97%
86 nM,"CCc1nc(C(=O)NC[C@]2(O)CC[C@@H](S(C)(=O)=O)CC2)c(C#N)n1-c1ccc(CC(C)(C)C(F)(F)F)cc1OC(F)(F)F [Example 111, 5-Cyano-2-ethyl-N-(((1s,4s)-1-hydroxy-4-(methylsulfonyl)cyclohexyl)methyl)-1-(4-(3,3,3-trifluoro-2,2-dimethylpropyl)-2-(trifluoromethoxy)phenyl)-1H-imidazole-4-carboxamide]",inhibition at 6 µM: 99%
120 nM,"CCc1nc(C(=O)NC[C@]2(O)CC[C@@H](S(C)(=O)=O)CC2)c(Cl)n1-c1c(F)cc(CC(C)C)cc1F [Example 83, 5-Chloro-1-(2,6-difluoro-4-isobutylphenyl)-2-ethyl-N-(((1s,4s)-1-hydroxy-4-(methylsulfonyl)cyclohexyl)methyl)-1H-imidazole-4-carboxamide]",inhibition at 2 µM [3]: 23%
6.7 nM,"CCc1nc(C(=O)NC[C@]2(O)CC[C@@H](S(C)(=O)=O)CC2)c(Cl)n1-c1ccc(CC(C(F)(F)F)C(F)(F)F)cc1F [Example 100, 5-Chloro-2-ethyl-1-(2-fluoro-4-(3,3,3-trifluoro-2-(trifluoromethyl)propyl)phenyl)-N-(((1s,4s)-1-hydroxy-4-(methylsulfonyl)cyclohexyl)methyl)-1H-imidazole-4-carboxamide]",inhibition at 0.22 µM [1]: 100%
12 nM,"CCc1nc(C(=O)NC[C@H]2CC[C@H](S(C)(=O)=O)CC2)c(Cl)n1-c1ncc(CC(C)(C)C(F)(F)F)cc1OC(F)F [Example 2, 5-Chloro-1-(3-(difluoromethoxy)-5-(3,3,3-trifluoro-2,2-dimethylpropyl)pyridin-2-yl)-2-ethyl-N-((4-(methylsulfonyl)cyclohexyl)methyl)-1H-imidazole-4-carboxamide]","inhibition at 1 µM (1 μM compound concentration (***), read-out: RORγt (FL) Reporter Assay A or B, % inhibition): 84%"
160 nM,"CCc1nc(C(=O)NC[C@H]2CC[C@H](S(C)(=O)=O)CC2)c(F)n1-c1ccc(N[C@H](C)C(F)(F)F)cc1OC [Example 12, 2-Ethyl-5-fluoro-1-(2-methoxy-4-(((R)-1,1,1-trifluoropropan-2-yl)amino)phenyl)-N-(((1r,4R)-4-(methylsulfonyl)cyclohexyl)methyl)-1H-imidazole-4-carboxamide]",inhibition at 6 µM: 109%
36 nM,"CCc1nc(C(=O)NC[C@H]2CC[C@H](S(C)(=O)=O)CC2)c(Cl)n1-c1ccc(N[C@H](C)C(F)(F)F)cc1OC [Example 3, 5-Chloro-2-ethyl-1-(2-methoxy-4-(((R)-1,1,1-trifluoropropan-2-yl)amino)phenyl)-N-(((1r,4R)-4-(methylsulfonyl)cyclohexyl)methyl)-1H-imidazole-4-carboxamide]",inhibition at 2 µM [3]: 101%
13 nM,"CCc1nc(C(=O)NC[C@H]2CC[C@H](S(C)(=O)=O)CC2)c(C#N)n1-c1ccc(CC(C)(C)C(F)(F)F)cc1OC(F)F [Example 36, 5-Cyano-1-(2-(difluoromethoxy)-4-(3,3,3-trifluoro-2,2-dimethylpropyl)phenyl)-2-ethyl-N-(((1r,4r)-4-(methylsulfonyl)cyclohexyl)methyl)-1H-imidazole-4-carboxamide]",inhibition at 2 µM [3]: 101%

SMILES,IC50,also measured
"CCc1nc(C(=O)NC[C@H]2CC[C@H](S(C)(=O)=O)CC2)c(C)n1-c1ccc(CC(C)C(F)(F)F)cc1OC (single isomer, unassigned) [Example 7]",12 nM,"inhibition at 0.22 µM (read-out: RORγt (FL) Reporter Assay A or B, % inhibition, 0.22 μM compound concentration (******)): 91%"
"CCc1nc(C(=O)NC[C@H]2CC[C@H](S(C)(=O)=O)CC2)c(Cl)n1-c1ccc(CC(C)C(F)(F)F)cc1OC (single isomer, unassigned) [Example 6, 5-Chloro-2-ethyl-1-((1S*)-2-methoxy-4-(3,3,3-trifluoro-2-methylpropyl)phenyl)-N-(((1r,4S)-4-(methylsulfonyl)cyclohexyl)methyl)-1H-imidazole-4-carboxamide]",6 nM,"RORγt (FL) Reporter Assay A or B, % inhibition (0.67 μM compound concentration (****)): 99**** %"
